The numbers were not newly measured in US20040167355A1, “Hydrocarbon products and methods of preparing hydrocarbon products” (priority 2003, published 2004), which cites them from elsewhere.

Molecules are shown by their SMILES.

For data set [1] the following is noted: 1% solution of the sodium salt of the surfactant.
The conditions of data set [2]: 25° C.; 450 ppm surfactant, 420 ppm hardness (3:1 Ca++:Mg++).

Take `CCCCCCCCCCC(C)c1ccc(S(=O)(=O)O)cc1` (stereo not shown) [2-Phenyl Dodecyl Benzene Sulfonate]: the Krafft temperature in data set [1] was 36 °C. The “loss of surfactant in hard water” value in data set [2] is given as 100%.
`CCCCCCCC(C)CCC(C)c1ccc(S(=O)(=O)O)cc1` (stereo not shown) [5-Methyl-2-Phenyl Dodecyl Benzene Sulfonate]: the Krafft temperature in data set [1] was 16 °C. For the same compound, the “loss of surfactant in hard water” value in data set [2] was 5%.
